Measurements from patent US11667632B2, “2-(1H-indazol-3-yl)-3H-imidazo[4,5-C]pyridines and their anti-inflammatory uses thereof” (BioSplice Therapeutics, Inc., priority 2015, dated 2023).

Key:
[1] = system: IL-1β; test: Inhibition of IL-1β in LPS-stimulated primary PBMCs (MSD U-plex); type: cell-based; details: human PBMCs, LPS (500 ng/mL), Compound 10 (150 nM), 24 hrs; MSD platform; FIG. 15
Experimental: (§1) Primary peripheral blood mononuclear cells (PBMCs) freshly isolated from healthy human donors were obtained from AllCells Inc. and utilized for assays immediately. Compound 10 was dissolved in DMSO as a 10 mM stock and used to prepare compound source plates. A serial dilution (8-point dose-response) and compound transfer was performed using the ECHO 550 (Labcyte, Sunnyvale, Calif.) into 96-well clear bottom assay plates (Greiner Bio-One) with appropriate DMSO backfill for a final DMSO concentration of 0.05%. PBMCs were plated at 2×10e^5 cells/well in Roswell Park Memorial Institute (RPMI) 1640 Medium (Catalog #21870-100, Buffalo, N.Y.) with 1% L-glutamine, 1% HEPES, 1% Sodium Pyruvate, 2% Sodium Bicarbonate supplemented with 100 units/mL penicillin, 50 μg/mL streptomycin and 1% fetal bovine serum (Catalog #16140089, Life Technologies, Carlsbad, Calif.). […]
(§2) Supernatants were diluted appropriately for ELISA. […] Following several washes to remove unbound avidin-HRP, the TMB substrate was added and the plates were read on the Cytation 3 plate reader (Biotek Inc., Winooski, Vt.) at an absorbance of 450 nm with correction at 570 nm. […] Inhibition profile and EC50 was calculated using Prism 5 (GraphPad Software Inc, La Jolla, Calif., USA). […] Levels of cytokines were calculated using software form Meso Scale Discovery.

[2] = system: IL-8; test: Inhibition of IL-8 in LPS-stimulated primary PBMCs (MSD U-plex); type: cell-based; details: human PBMCs, LPS (500 ng/mL), Compound 10 (150 nM), 24 hrs; MSD platform; FIG. 15
Experimental: as §1, §2

[3] = system: Interleukin 6 (IL-6); test: Inhibition of IL-6 secretion in IL-1β-stimulated synovial fibroblasts (SW982), ELISA; type: cell-based; details: human synovial fibroblasts stimulated with IL-1β, treated 24 hrs, FIG. 14A
Experimental: (§3) Synovial fibroblasts (SW982 cells; ATCC) were cultured in Leibovitz's L-15 Medium (ATCC) with 10% FBS at 37° C. and 0% CO2. 24 hours before the start of the assay, media was changed to Leibovitz's L-15 Medium with […]. Compound 10 was dissolved in DMSO as a 10 mM stock and used to prepare compound source plates. A serial dilution (8-point dose-response) and compound transfer was performed using the ECHO 550 (Labcyte, Sunnyvale, Calif.) into 96-well clear bottom assay plates (Greiner Bio-One) with appropriate DMSO backfill for a final DMSO concentration of 0.05%. […] Plates were spun in a centrifuge for 1 minute at 10,000 rpm and supernatants were collected for ELISA.
(§4) Supernatants were diluted 1:1 for the TNFα assay and 1:4 for the IL6 assay using the assay medium. ELISA was performed using Human TNF-α ELISA MAX™ Deluxe (Catalog #430204, Biolegend, San Diego, Calif.) and Human IL-6 ELISA MAX™ Deluxe (Catalog #430504, Biolegend, San Diego, Calif.) kits. […] Following several washes to remove unbound avidin-HRP, the TMB substrate was added and the plates were read on the Cytation 3 plate reader (Biotek Inc., Winooski, Vt.) at an absorbance of 450 nm with correction at 570 nm. […] Inhibition profile and EC50 was calculated using Prism 5 (GraphPad Software Inc, La Jolla, Calif., USA).

[4] = Persistence of radiolabeled Compound 10 in rabbit knee joints; type: in vivo; details: rabbits; two single IA injections in two knees at 4 μg/knee; after 1 hour up to 168 hours
[5] = system: IL-5; test: Inhibition of IL-5 in LPS-stimulated primary PBMCs (MSD U-plex); type: cell-based; details: human PBMCs, LPS (500 ng/mL), Compound 10 (150 nM), 24 hrs; MSD platform; FIG. 15
Experimental: as §1, §2

[6] = system: Tumor Necrosis Factor Alpha (TNF-α); test: Inhibition of TNF-α secretion in IL-1β-stimulated synovial fibroblasts (SW982), ELISA; type: cell-based; details: human synovial fibroblasts stimulated with IL-1β, treated 24 hrs, FIG. 14A
Experimental: as §3, §4

[7] = Quantitative whole body autoradiography and excretion of radiolabeled Compound 10 in rats; type: in vivo; details: SD rats, two IA injections at 1 μg/knee
From the text: In terms of excretion, 95% of the excreted radioactivity was recovered in the feces and only 5% in the urine. QWBA radiographic images and quantitation of radioactivity in the feces with much less recovery in the urine, support the hypothesis that [^3H]-Compound 10 is being eliminated by drainage in the lumbar and inguinal lymph ducts and lymph nodes, and through the small and large intestines and cecum in a mechanism consistent with slow passive fecal excretion, a major route of elimination of slowly metabolized xenobiotics. During this process, the radiolabeled [3H]-Compound 10 was degraded with only ˜1.5% of parent detected in the fecal matter.

[8] = Plasma concentrations after a single intra-articular injection of radiolabeled Compound 10 in rats; type: in vivo, Sprague Dawley (SD) rats; details: SD rats, single IA injection 1 μg/knee
Experimental: Plasma concentration and distribution of Compound 10 following a single IA injection in Sprague Dawley (SD) rats were investigated in radiolabeled and mass balance studies with a tritium-labeled (^3H) Compound 10. [^3H]-Compound 10 was formulated as a suspension in 0.5% carboxymethylcellulose/0.05% polysorbate 80 for intra-articular (IA) injection and diluted with unlabeled Compound 10 to the appropriate concentration and injected in the rat knee joint at a dose level equivalent to 1 μg/knee.

**Q.** For `CC(C)CC(=O)Nc1cncc(-c2ccc3[nH]nc(-c4nc5c(-c6cccc(F)c6)cncc5[nH]4)c3c2)c1` [Compound 10], which “Inhibition of IL-1β” value [1] is on record?
**A.** The value was “Inhibition”.

**Q.** And the “Inhibition of IL-8” value [2]?
**A.** Its value is “Inhibition”.

**Q.** And the “inhibition of IL-6 secretion” value [3]?
**A.** The value was “inhibition”.

**Q.** What about the “administered radioactivity recovered in the knee” value [4] of the same molecule?
**A.** The value was 75%.

**Q.** What about the “Inhibition of IL-5” value [5] of the same molecule?
**A.** The value was “Inhibition”.

**Q.** And the “inhibition of TNF-a secretion” value [6]?
**A.** Its value is “inhibition”.

**Q.** And the “excreted radioactivity recovered in the feces” value [7]?
**A.** Its value is 95%.

**Q.** And the “excreted radioactivity recovered in the urine” value [7]?
**A.** Its value is 5%.

**Q.** What about the “parent detected in the fecal matter” value [7] of the same molecule?
**A.** The value was about 1.5%.

**Q.** What about the “total radioactivity recovered from the whole carcass, feces, urine and cage wash” value ([7]; QWBA) of the same molecule?
**A.** The value was about 75%.

**Q.** And the “radioactivity in major organs” value ([7]; at 1 hour and up to 168 hours post-IA injection)?
**A.** Its value is “negligible/undetectable”.

**Q.** What about the “Mean radioactivity exposure AUC(0-inf)” value ([8]; females) of the same molecule?
**A.** Its value is 1.818 ng-equiv.h/g.

**Q.** What about the “Mean radioactivity exposure AUC(0-t)” value ([8]; females) of the same molecule?
**A.** Its value is 1.040 ng-equiv.h/g.

**Q.** What about the Tmax ([8]; females) of the same molecule?
**A.** Its Tmax is 4 h.

**Q.** What about the “apparent terminal elimination half-life in the blood” value ([8]; females) of the same molecule?
**A.** The value was 124 h.

**Q.** And the “Mean radioactivity exposure AUC(0-inf.)” value ([8]; males)?
**A.** The value was 1.548 ng-equiv.h/g.

**Q.** What about the “Mean radioactivity exposure AUC(0-t)” value ([8]; males) of the same molecule?
**A.** Its value is 0.832 ng-equiv.h/g.

**Q.** And the Tmax ([8]; males)?
**A.** Its Tmax is 1 h.

**Q.** And the “apparent terminal elimination half-life in the blood” value ([8]; males)?
**A.** The value was 57 h.
